Laboratory results as given in PMC7306133 (Diabetes, 2020).
Where a SMILES comes first, the peptide text is derived from it. Where no end group is shown, it is not given here.

Legend:
[1] = molecular target: HLA-DRB1*04:01 (DR0401) protein (Homo sapiens, UniProt P01903+P01911, A100K/A169T/F76Y/I96L/K127E/L162R/M171V/N62H/P40V/Q125Y/R42H/S133A/S149N/S66Y/V115G/V209L/W38E); assay: DR0401 peptide binding competition assay
[2] = tested on: CD4+ T cells in peripheral blood of subjects with T1D; assay: Ex vivo tetramer analysis of T-cell frequency; type: cell-based, human; details: DR0401 tetramers, ex vivo enrichment
[3] = tested on: HIP-specific T-cell clones; assay: Proliferation of HIP-specific T-cell clones in response to human islet fractions; type: cell-based; details: label = specificity of the clone; compared with the unpulsed control condition

Row | Compound | IC50 [1] | Average frequency of HIP-reactive T cells [2] | Proliferation of the HIP-reactive clone in response to human islets (in words) [3]
1 | VCGERGFFEELVARSE [HIP-4.1] | 2.8 µM | – | –
2 | HLVEALYLEELVARSE [HIP-4.2] | 0.44 µM | – | –
3 | SLQKRGIVEELVARSE [HIP-4.18] | 1.8 µM | – | –
4 | CSLYQLENSVPHFSDE [HIP-4.39] | 0.24 µM | – | –
5 | QPLALEGSALSSQHQA [HIP-4.40] | 2.4 µM | – | –
6 | CC[C@H](C)[C@H](N)C(=O)N[C@@H](CS)C(=O)N[C@@H](CO)C(=O)N[C@@H](CC(C)C)C(=O)N[C@@H](Cc1ccc(O)cc1)C(=O)N[C@@H](CCC(N)=O)C(=O)N[C@@H](CC(C)C)C(=O)N[C@@H](CCC(=O)O)C(=O)N[C@@H](Cc1ccccc1)C(=O)N[C@H](C(=O)N[C@@H](CC(N)=O)C(=O)N[C@@H](CCC(N)=O)C(=O)N[C@@H](Cc1c[nH]cn1)C(=O)N[C@@H](CC(C)C)C(=O)N[C@@H](CS)C(=O)NCC(=O)O)C(C)C [HIP-4.4] (H-ICSLYQLEFVNQHLCG-OH; N-terminus and C-terminus assumed) | – | 8 cells per million CD4+ T cells | not above the unpulsed control condition
